Source: patent US11666549B2, “Regulation of cancer using natural compounds and/or diet” (UNIVERSITY OF FLORIDA RESEARCH FOUNDATION, INC., priority 2013, dated 2023)
Entries after “also recorded” stand apart in the source; their conditions may differ.

Legend:
[1] = system: Primary human GBM stem cell lines; assay: NP in vitro fold expansion of hGB cells; assay type: cell-based; conditions: EGCG 8 μM, Curcumin 0.5 μM, sulforaphane 2.5 μM or all three; daily for 4 out of 5 days; vs control
Description: Cells were passed after 5-7 days and cell counts were performed. […] Micrographs show cultures after 4 days of exposure to the different treatments.
Patient derived hGB cells were cultured under defined conditions using established protocols that allow the tumor cells to retain both their phenotypic and genotypic properties in vitro. hGB cell lines were treated with the following NPs:

[2] = system: Colorectal adenocarcinoma cells (HT-29); assay: NP on colon cancer cells in vitro, cell count; assay type: cell-based, human; conditions: daily EGCG 8 μM, Curcumin 0.5 μM, sulforaphane 2.5 μM or all three; counted when controls confluent
Description: Once the control cultures became confluent, a cell count was performed.

[3] = system: Human breast cancer cells (ZR751); assay: NP on breast cancer cell viability, MTT assay; assay type: cell-based; conditions: daily EGCG 8 μM, Curcumin 0.5 μM, SFN 2.5 μM or combination; vs controls
Description: Human breast cancer cells (ZR751) were treated daily with EGCG (8 μM), Curcumin (0.5 μM) or SFN (2.5 μM) individually or in combination (NP). Once the control cultures became confluent, cell viability was measured using MTT assay.
Human breast cancer cells [ZR751] grown in culture and treated daily with physiological concentrations of either EGCG (8 μM), Curcumin (0.5 μM) or SFN (2.5 μM) or used in combination (NP).

[4] = system: Primary human GB stem cell lines; assay: Daily fold expansion, NP and TMZ in vitro; assay type: cell-based; conditions: in combination with TMZ; EGCG 8 μM, Curcumin 0.5 μM, SFN 2.5 μM or all three
Description: FIG. 11: Daily fold expansion—Effect of NP and TMZ in vitro. Primary human GB stem cell lines were treated daily for 4 out of 5 days in culture TMZ alone or in combination with EGCG (8 μM), Curcumin (0.5 μM), sulforaphane (2.5 μM) or a combination of all three (NP). Cells were passed after 5-7 days and cell counts performed. […] The stars (*) are compared to control, # to TMZ alone and $ to the different combinations of TMZ with each of the individual natural products. 1 symbol, p<0.05, 3 symbols, p<0.001, 1-way ANOVA.
Standard of care [SOC] for many solid tissue cancers involves the use of chemotherapy, which for many advanced or high grade tumors provides marginal benefit. Patient derived hGB cells were grown in culture and treated daily with the conventional drug temozolomide [TMZ, 20 μM] only or in combination with the following NPs:
[4] a combination of all three NPs
After 5-7 days in culture cells were counted and the mean daily fold expansion calculated.

hNSC = hNSC viability, MTT assay after neurosphere culture; assay type: cell-based, human; conditions: 14 days culture, daily treatment; EGCG 8 μM, Curcumin 0.5 μM, SFN 2.5 μM or all three
Description: FIG. 33B) hNSC were plated at 20K cells per 100 ul of medium and cultured in the neurosphere assay for 14 days. […] After 14 days in culture, MTT assay was performed to measure cell viability.

[5] = system: Lung carcinoma cells (A549); assay: NP on lung cancer cells in vitro, cell count; assay type: cell-based, human; conditions: daily EGCG 8 μM, Curcumin 0.5 μM, sulforaphane 2.5 μM or all three; counted when controls confluent
Description: Once the control cultures became confluent a cell count was performed.

[6] = system: Patient derived hGB cells; assay: Serial passage of hGB cells, growth and CSC expansion rate (Kll); assay type: cell-based, human; conditions: 5 passages; EGCG 8 μM, curcumin 0.5 μM, SFN 2.5 μM or combination; vs control
Description: FIG. 10A) Patient derived hGB cells were serially passed in culture for 5 passages under a variety of treatment conditions. […] Human GB cells were cultured in the neurosphere assay over 5 passages during which CSC expansion rate was evaluated.
In a second experiment [FIG. 10], patient derived hGB cells were serially passed in culture while being treated with the following NPs:
[4] A combination of all three NPs

[7] = Body weight, TMZ vs. mKD/NP; conditions: after 4 days of treatment, TMZ 20 mg/kg
Description: FIG. 6: Body weight—TMZ vs. mKD/NP. Toxicity/safety of mKD/NP was compared to standard of care (TMZ, 20 mg/kg) by monitoring body weight after 4 days of treatment.
The first line chemotherapy for high grade gliomas is temozolomide [TMZ], which is an oral alkylating agent that damages DNA and triggers cell death. While TMZ is an effective chemotherapy agent it also has significant toxicity. Using the same subcutaneous model as noted in example 2, at the time of tumor presentation animals were randomly assigned to one of three groups: [1] control diet, no treatment; [2] control diet, SOC [TMZ, 20 mg/kg three times/week]; [3] mKD/NP diet.

[8] = Non-tumor death, TMZ vs. mKD/NP; assay type: in vivo, mouse; conditions: TMZ 20 mg/kg three times/week; mKD/NP diet; vs untreated controls
Text: FIG. 5: Non-Tumor Death—TMZ vs. mKD/NP. Mortality rate unrelated to tumor was monitored during the course of treatments.

[9] = system: high-grade gliomas such as GB; conditions: GB patients; cited from earlier work

Molecule | mean daily fold expansion of GB cells [1] | cell number [2] | cell viability (MTT) [3] | mean daily fold expansion, natural product added to TMZ treatment [4] | cell viability (MTT) (hNSC) | cell number [5] | CSC self-renewing symmetric division rate (Kll) [6] | body weight [7] | body weight ([7]; listed as SOC) | mortality from non-tumor related causes [8] | negative side effects [9]
COc1cc(/C=C/C(=O)CC(=O)/C=C/c2ccc(O)c(OC)c2)ccc1O [Curcumin, curcumin] | significant reduction in mean daily fold expansion | significant reduction in cell number | no statistically significant effect on reducing the number of breast cancer cells; also recorded: none of the natural product showed statistically significant effect compared to controls | significant reduction in the mean daily fold expansion of hGB cells compared to control | did not show any effect on the viability of hNSCs | do not show a statistically significant effect in reducing cell numbers | Only SFN or NP treated groups demonstrated significant decrease |  |  |  | 
C[S+]([O-])CCCCN=C=S (stereo not drawn) [SFN, sulforaphane] | significant reduction in mean daily fold expansion | significant reduction in cell number | no statistically significant effect on reducing the number of breast cancer cells; also recorded: none of the natural product showed statistically significant effect compared to controls | enhanced this effect, with SFN demonstrating the greatest effect; also recorded: significant reduction in the mean daily fold expansion of hGB cells compared to control | did not show any effect on the viability of hNSCs |  | significant decrease of CSCs self-renewing symmetric division rate compared to control |  |  |  | 
Cn1nnc2c(C(N)=O)ncn2c1=O [TMZ, temozolomide] |  |  |  |  |  |  |  | significant loss of body weight compared to control and mKD/NP | significantly reduced | increase in mortality compared to the untreated controls | nausea, vomiting and hematological toxicity
epigallocatechin-3-gallate [EGCG] | significant reduction in mean daily fold expansion | significant reduction in cell number | no statistically significant effect on reducing the number of breast cancer cells; also recorded: none of the natural product showed statistically significant effect compared to controls | enhanced this effect; also recorded: significant reduction in the mean daily fold expansion of hGB cells compared to control | did not show any effect on the viability of hNSCs | do not show a statistically significant effect in reducing cell numbers | Only SFN or NP treated groups demonstrated significant decrease |  |  |  | 
